According to ChEMBL document CHEMBL5247602, “Developing a Naïve Bayesian Classification Model with PI3Kγ structural features for virtual screening against PI3Kγ: Combining molecular docking and pharmacophore based on multiple PI3Kγ conformations” (Eur J Med Chem, 2022):

Columns and labels:
[1] = molecular target: T1, Phosphatidylinositol 4,5-bisphosphate 3-kinase catalytic subunit gamma isoform (Homo sapiens, UniProt P48736); test: Inhibition of PI3Kgamma (unknown origin) at 10 uM preincubated for 10 mins followed by ATP addition and measured after 60 mins by ADP-Glo assay relative to control; conditions: time 70.0 min
Target sequence in this assay (P48736 whole entry, looked up, canonical isoform): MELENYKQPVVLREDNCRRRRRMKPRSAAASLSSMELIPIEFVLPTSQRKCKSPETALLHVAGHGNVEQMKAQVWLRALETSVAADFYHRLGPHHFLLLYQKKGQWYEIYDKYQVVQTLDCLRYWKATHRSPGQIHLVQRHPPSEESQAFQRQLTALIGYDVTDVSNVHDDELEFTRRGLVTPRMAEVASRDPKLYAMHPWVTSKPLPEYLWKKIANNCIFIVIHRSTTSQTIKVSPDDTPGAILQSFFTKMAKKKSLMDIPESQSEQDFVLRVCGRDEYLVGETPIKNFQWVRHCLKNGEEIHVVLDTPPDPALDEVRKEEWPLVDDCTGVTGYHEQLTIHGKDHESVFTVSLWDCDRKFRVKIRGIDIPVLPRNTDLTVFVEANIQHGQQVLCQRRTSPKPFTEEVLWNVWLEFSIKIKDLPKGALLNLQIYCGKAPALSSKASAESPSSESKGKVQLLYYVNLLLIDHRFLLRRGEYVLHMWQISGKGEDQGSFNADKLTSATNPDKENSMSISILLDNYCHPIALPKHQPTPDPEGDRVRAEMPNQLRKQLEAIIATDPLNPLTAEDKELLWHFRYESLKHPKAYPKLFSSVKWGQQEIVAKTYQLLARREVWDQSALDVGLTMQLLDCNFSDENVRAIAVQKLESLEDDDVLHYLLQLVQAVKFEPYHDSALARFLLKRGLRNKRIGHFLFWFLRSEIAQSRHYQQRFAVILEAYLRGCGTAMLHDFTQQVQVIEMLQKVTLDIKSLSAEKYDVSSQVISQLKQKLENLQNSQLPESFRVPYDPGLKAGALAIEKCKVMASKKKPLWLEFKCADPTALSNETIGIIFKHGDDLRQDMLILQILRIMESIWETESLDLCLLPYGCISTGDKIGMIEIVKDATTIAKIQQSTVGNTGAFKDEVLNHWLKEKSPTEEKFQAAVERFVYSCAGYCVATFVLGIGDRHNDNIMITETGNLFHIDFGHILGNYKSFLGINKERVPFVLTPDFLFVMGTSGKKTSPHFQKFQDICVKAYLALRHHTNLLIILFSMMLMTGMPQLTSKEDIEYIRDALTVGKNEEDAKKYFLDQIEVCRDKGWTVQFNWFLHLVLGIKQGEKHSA

[2] = molecular target: T1, Phosphatidylinositol 4,5-bisphosphate 3-kinase catalytic subunit gamma isoform; test: Inhibition of PI3Kgamma (unknown origin) preincubated for 10 mins followed by ATP addition and measured after 60 mins by ADP-Glo assay
Target sequence in this assay (P48736 whole entry, canonical isoform): as the sequence (P48736 whole entry, looked up, canonical isoform) above

[3] = molecular target: Phosphatidylinositol 4,5-bisphosphate 3-kinase catalytic subunit alpha isoform (Homo sapiens, UniProt P42336); test: Inhibition of PI3Kalpha (unknown origin) preincubated for 10 mins followed by ATP addition and measured after 60 mins by ADP-Glo assay
Chain of Phosphatidylinositol 4,5-bisphosphate 3-kinase catalytic subunit alpha isoform (P42336 whole entry, canonical isoform): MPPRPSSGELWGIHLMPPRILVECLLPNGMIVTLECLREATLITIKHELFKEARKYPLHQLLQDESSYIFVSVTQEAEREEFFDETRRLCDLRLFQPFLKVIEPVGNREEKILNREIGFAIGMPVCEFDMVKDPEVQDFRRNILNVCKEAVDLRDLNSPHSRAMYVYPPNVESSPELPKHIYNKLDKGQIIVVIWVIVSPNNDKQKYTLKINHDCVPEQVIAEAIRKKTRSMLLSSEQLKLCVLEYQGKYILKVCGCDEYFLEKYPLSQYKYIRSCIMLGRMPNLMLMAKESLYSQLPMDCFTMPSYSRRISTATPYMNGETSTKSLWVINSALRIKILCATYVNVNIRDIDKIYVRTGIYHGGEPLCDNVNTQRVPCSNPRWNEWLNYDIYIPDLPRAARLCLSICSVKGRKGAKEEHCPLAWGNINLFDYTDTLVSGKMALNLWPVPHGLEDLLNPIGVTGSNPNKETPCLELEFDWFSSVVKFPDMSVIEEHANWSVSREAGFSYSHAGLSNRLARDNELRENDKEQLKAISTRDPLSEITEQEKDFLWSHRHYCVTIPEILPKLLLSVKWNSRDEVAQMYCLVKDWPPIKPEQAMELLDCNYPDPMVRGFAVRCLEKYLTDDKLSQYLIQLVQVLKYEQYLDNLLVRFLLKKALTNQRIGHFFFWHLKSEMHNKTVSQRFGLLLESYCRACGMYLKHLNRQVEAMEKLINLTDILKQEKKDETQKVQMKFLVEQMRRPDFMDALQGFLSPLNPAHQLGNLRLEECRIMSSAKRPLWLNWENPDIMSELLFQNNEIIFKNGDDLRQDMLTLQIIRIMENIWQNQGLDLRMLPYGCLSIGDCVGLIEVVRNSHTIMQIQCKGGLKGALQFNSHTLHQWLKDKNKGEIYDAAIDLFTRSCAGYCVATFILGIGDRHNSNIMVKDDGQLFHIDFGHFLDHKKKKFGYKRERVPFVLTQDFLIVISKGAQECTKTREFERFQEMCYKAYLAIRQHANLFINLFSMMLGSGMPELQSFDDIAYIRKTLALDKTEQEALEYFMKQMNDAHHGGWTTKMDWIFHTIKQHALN

[4] = molecular target: Phosphatidylinositol 4,5-bisphosphate 3-kinase catalytic subunit beta isoform (Homo sapiens, UniProt P42338); test: Inhibition of PI3Kbeta (unknown origin) preincubated for 10 mins followed by ATP addition and measured after 60 mins by ADP-Glo assay
Chain of Phosphatidylinositol 4,5-bisphosphate 3-kinase catalytic subunit beta isoform (P42338 whole entry, canonical isoform): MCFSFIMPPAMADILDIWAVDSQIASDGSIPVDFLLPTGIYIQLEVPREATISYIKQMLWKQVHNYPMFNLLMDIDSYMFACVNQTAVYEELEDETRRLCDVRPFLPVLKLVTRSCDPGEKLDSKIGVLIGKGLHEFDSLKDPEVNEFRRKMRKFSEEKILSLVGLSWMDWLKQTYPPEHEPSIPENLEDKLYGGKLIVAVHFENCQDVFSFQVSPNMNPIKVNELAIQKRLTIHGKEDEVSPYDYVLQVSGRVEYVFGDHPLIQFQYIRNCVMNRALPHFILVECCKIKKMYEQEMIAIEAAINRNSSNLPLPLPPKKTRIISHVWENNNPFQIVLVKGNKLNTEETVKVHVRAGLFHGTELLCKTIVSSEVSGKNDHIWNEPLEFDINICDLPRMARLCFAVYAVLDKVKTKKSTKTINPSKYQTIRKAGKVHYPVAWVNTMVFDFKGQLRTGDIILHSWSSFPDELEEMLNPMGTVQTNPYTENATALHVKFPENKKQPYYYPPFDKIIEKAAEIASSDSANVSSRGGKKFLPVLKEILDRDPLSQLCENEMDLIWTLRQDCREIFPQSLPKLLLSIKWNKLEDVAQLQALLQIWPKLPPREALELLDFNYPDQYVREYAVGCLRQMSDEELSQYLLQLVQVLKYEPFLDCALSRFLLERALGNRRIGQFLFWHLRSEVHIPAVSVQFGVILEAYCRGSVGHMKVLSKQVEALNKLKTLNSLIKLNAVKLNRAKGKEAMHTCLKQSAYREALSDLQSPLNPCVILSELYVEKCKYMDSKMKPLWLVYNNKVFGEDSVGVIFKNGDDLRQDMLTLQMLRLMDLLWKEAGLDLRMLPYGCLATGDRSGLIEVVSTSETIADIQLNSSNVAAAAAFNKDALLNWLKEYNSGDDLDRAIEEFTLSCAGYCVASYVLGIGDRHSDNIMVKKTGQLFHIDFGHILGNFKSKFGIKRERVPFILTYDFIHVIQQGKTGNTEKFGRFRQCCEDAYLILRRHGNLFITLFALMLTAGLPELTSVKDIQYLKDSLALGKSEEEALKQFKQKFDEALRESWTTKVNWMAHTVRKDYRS

[5] = molecular target: T2, Phosphatidylinositol 4,5-bisphosphate 3-kinase catalytic subunit delta isoform (Homo sapiens, UniProt O00329); test: Inhibition of PI3Kdelta (unknown origin) preincubated for 10 mins followed by ATP addition and measured after 60 mins by ADP-Glo assay
T2 sequence (O00329 whole entry): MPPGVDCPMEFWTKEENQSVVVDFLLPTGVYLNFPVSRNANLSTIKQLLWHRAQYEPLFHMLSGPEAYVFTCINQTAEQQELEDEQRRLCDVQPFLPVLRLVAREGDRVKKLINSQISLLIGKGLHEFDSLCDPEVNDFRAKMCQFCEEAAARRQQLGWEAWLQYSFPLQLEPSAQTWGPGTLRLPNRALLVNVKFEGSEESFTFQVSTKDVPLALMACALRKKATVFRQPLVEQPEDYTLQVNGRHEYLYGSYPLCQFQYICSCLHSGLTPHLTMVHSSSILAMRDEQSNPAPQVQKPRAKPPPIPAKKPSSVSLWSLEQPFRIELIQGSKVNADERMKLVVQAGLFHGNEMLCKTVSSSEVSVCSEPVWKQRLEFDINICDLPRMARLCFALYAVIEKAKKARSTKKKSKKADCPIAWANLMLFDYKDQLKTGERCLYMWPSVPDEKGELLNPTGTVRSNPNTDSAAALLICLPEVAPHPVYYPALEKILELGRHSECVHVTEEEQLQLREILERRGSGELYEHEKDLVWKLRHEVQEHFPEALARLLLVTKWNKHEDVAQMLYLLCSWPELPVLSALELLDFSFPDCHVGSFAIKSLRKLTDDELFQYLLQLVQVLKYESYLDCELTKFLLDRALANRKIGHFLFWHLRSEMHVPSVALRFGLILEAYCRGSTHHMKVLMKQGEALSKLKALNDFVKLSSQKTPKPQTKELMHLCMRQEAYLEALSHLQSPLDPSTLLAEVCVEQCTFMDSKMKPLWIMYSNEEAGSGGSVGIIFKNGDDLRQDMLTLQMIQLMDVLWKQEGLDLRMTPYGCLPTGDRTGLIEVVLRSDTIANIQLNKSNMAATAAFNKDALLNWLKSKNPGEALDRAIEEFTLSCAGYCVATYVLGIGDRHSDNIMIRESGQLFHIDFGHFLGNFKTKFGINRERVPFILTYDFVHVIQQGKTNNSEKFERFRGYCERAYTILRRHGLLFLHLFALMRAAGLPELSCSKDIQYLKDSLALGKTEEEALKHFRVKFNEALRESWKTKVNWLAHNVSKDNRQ

RAW264.7 [6] = test: Inhibition of PI3K/AKT signalling pathway in mouse RAW264.7 cells assessed as reduction in LPS-stimulated phosphorylation of AKT at Ser473 residue preincubated for 6 hrs followed by LPS stimulation for 6 hrs by Western blot analysis; type: cell-based; conditions: dose 5-20 µM, time 12.0 hrs
RAW264.7 [7] = test: Inhibition of PI3K/AKT signalling pathway in mouse RAW264.7 cells assessed as reduction in LPS-stimulated phosphorylation of AKT at Ser473 residue at 5 to 20 uM preincubated with compound followed by LPS stimulation for 6 hrs by Western blot analysis; type: cell-based; conditions: dose 5-20 µM, TDE = time-dependent effect
[8] = molecular target: Phosphatidylinositol 4,5-bisphosphate 3-kinase catalytic subunit gamma isoform (Mus musculus) (UniProt Q9JHG7); test: Inhibition of PI3Kgamma in mouse RAW264 cells assessed as reduction in LPS-stimulated TNFalpha mRNA expression preincubated for 6 hrs followed by LPS addition and measured after 24 hrs by RT-PCR analysis; type: cell-based; conditions: RAW264.7, dose 1.2-10 µM, time 30.0 hrs
Chain of Phosphatidylinositol 4,5-bisphosphate 3-kinase catalytic subunit gamma isoform (Mus musculus) (Q9JHG7 whole entry, looked up, canonical isoform): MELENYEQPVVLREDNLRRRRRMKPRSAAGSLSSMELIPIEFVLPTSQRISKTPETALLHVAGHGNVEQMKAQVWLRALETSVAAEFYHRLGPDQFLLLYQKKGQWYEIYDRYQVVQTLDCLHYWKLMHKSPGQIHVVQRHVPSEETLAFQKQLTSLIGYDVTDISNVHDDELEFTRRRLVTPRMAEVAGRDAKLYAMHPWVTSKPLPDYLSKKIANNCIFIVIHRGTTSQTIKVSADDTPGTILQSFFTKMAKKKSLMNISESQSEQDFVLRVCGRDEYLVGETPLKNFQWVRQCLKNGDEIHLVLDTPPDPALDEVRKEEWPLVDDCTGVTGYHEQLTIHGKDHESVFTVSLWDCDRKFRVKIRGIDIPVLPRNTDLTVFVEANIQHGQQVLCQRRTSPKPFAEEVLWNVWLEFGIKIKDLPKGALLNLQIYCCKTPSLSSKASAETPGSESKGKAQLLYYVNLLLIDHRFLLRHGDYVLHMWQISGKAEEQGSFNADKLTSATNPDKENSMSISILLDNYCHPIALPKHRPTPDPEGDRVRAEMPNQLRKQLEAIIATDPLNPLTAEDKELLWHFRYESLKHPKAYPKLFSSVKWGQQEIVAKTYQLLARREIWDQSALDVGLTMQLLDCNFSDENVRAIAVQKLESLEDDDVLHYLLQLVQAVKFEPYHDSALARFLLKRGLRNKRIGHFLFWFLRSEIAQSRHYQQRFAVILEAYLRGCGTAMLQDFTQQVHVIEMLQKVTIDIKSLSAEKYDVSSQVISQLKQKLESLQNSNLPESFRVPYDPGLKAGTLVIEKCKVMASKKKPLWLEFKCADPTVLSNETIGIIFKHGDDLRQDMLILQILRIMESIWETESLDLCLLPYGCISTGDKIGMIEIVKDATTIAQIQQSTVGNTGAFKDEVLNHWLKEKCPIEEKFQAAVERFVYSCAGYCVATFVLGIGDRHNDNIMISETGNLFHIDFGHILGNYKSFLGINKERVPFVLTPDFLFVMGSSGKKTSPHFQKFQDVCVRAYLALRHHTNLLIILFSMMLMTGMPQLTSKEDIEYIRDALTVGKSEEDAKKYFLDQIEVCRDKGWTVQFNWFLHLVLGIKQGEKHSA

[9] = molecular target: Phosphatidylinositol 4,5-bisphosphate 3-kinase catalytic subunit gamma isoform (Mus musculus) (UniProt Q9JHG7); test: Inhibition of PI3Kgamma in mouse RAW264 cells assessed as reduction in LPS-stimulated IL-6 mRNA expression preincubated for 6 hrs followed by LPS addition and measured after 24 hrs by RT-PCR analysis; type: cell-based; conditions: RAW264.7, dose 1.2-10 µM, time 30.0 hrs

| inhibition [1] | IC50 [2] | IC50 [3] | IC50 [4] | IC50 [5] | inhibition [8] | inhibition [9] | SMILES | inhibition (RAW264.7 [6]) | inhibition (RAW264.7 [7]) |
| --- | --- | --- | --- | --- | --- | --- | --- | --- | --- |
| 80% | 2.45 µM | 5.64 µM | 5.02 µM | 11.7 µM | Dose-Dependent Effect | Dose-Dependent Effect | Cn1c(=O)n(C)c2ccc3ccc4ccc1c2c43 | Dose-Dependent Effect | Tde |
| 55% | 17.5 µM | – | – | – | – | – | Cn1c(=O)c2cc(S(N)(=O)=O)ccc2n(C)c1=O | – | – |
| 40% | 15.9 µM | – | – | – | – | – | Cn1c(=O)c2cc(S(=O)(=O)NC3CC3)ccc2n(C)c1=O | – | – |
